The source of these data is US10363251B2, “(+)-morphinans as antagonists of toll-like receptor 9 and therapeutic uses thereof” (Mallinckrodt LLC, priority 2009, dated 2019).

“Also recorded” adds a separate entry of the source.

Assay [1] relates to APAP-induced liver toxicity. The experiment in a line: Acetaminophen (APAP)-induced hepatotoxicity model. It counts as in vivo, mouse. The settings on record: APAP 500 mg/Kg ip, 12 hours post-APAP; for Protection from APAP-induced toxicity: test doses and timing per Table 6; for Liver histology scores (necrosis and hemorrhage) / Serum alanine transaminase (ALT) levels: vs APAP alone. The protocol: For this, APAP-induced liver toxicity was induced in male C57BL/6 mice aged between 8-10 weeks by a single intraperitoneal (ip) injection of APAP in PBS at a dose of 500 mg/Kg (Imaeda et al. (2009) J. Clin. Invest. 119(2):305-314). The ability of (+)-morphinans to reduce liver toxicity was tested in the following groups:
The (+)-morphinan (or PBS) was either administered as a single subcutaneous (sc) or ip injection concurrent with the APAP injection or one hour prior to the APAP injection.
The mice were sacrificed 12 hours post-APAP treatment. Liver samples were stained with H&E and analyzed for signs of necrosis and hemorrhage. Histology scores were assigned using the standard rating scale. The levels of serum alanine transaminase (ALT) were also measured in each animal using a standard assay.

The target of another assay is T1, TLR7 (Homo sapiens, UniProt Q9NYK1).
T1 construct: expressed in transfected cells; host or cells: HEK293
T1 sequence (Q9NYK1 27-1049): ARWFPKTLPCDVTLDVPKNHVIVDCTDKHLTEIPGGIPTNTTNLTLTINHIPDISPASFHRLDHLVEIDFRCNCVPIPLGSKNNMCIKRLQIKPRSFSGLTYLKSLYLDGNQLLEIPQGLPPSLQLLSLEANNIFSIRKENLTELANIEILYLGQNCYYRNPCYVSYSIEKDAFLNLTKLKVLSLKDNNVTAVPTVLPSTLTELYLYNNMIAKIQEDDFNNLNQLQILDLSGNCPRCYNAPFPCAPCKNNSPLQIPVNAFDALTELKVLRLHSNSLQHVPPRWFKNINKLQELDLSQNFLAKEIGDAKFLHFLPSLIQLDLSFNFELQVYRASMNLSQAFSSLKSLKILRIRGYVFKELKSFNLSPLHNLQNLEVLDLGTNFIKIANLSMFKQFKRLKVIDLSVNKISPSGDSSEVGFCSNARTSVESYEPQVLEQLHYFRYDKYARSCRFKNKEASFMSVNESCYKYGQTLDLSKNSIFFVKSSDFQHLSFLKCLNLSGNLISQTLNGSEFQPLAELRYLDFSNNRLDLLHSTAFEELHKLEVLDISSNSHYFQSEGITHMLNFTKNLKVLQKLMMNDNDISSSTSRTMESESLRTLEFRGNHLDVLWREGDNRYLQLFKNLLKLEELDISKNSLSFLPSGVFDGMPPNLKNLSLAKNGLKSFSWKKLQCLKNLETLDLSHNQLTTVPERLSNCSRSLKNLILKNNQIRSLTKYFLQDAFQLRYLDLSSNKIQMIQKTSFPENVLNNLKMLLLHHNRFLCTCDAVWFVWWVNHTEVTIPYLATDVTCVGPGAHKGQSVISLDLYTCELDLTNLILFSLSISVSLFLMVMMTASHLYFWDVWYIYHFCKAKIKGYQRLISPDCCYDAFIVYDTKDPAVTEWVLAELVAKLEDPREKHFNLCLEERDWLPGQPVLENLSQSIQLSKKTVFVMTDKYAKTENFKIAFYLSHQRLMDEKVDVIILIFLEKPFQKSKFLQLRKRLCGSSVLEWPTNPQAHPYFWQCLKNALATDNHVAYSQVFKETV
The experiment in a line: TLR7 antagonist screening, NF-κB-inducible SEAP reporter in HEK293 cells. To be noted: for Average % Inhibition at TLR7: 10 μM, stimulated with CL097 at 1 μg/ml. It counts as cell-based. The protocol: Stimulation of TLRs 2, 3, 4, 5, 7, 8, and 9 was determined by assessing activation of the transcription factor NF-κB in HEK293 cells that were engineered to express the corresponding receptors. Assessment of TLR stimulation was based on the use of an NF-κB-inducible secreted alkaline phosphatase (SEAP) reporter system in which the SEAP reporter was under the control of a promoter inducible by NF-κB. Thus, the degree of activation of TLRs can be indirectly quantified spectrophotometrically by measuring the amount of the SEAP reporter that is produced.
The appropriate TLR-expressing cells were plated in Growth Medium in a 96-well plate (25,000-50,000 cells/well). The cells were stimulated with the appropriate positive control ligand or no ligand was added (negative control). The positive control ligands were: HKLM was used to stimulate TLR2; poly(I:C) was used to stimulate TLR3; LPS was used to stimulate TLR4; Flagellin was used to stimulate TLR5; CL097 was used to stimulate TLR7; CL075 was used to stimulate TLR8; CpG oligodeoxynucleotide (ODN) 2006 was used to stimulate TLR9. To test whether (+)-morphinans could block that activation of the TLR, the cells were pretreated with an antagonist for 30 minutes prior to addition of the positive control ligand. […] After a 16-20 hr incubation period at 37° C. in a CO2 incubator, 20 μL of the cell culture supernatant was added to 180 μL of QUANTI-Blue™ Media (InvivoGen, San Diego, Calif.), and the resulting solutions were incubated at 37° C. for an additional 1-3 hours according to the manufacturer's instructions. The OD's of the samples were then read at 650 nm on a Beckman Coulter AD 340C Absorbance Detector.

The next assay has as its system TLR9. The experiment in a line: IFN-β up-regulation in plasmacytoid dendritic cells by TLR9 agonist ODN2395. It counts as cell-based. The text has this:
TLR9 signalling involves activation of NF-κB and IRF downstream pathways. The (+)-morphinan inhibited both of these pathways following activation of TLR9 (but not activation of TLR4 or other receptors). The type C TLR9 agonist, ODN2395, and the TL4 agonist, LPS, both induce up-regulation of IL-1β in peritoneal macrophages via activation of NF-κB.

With `C=CCN1CC[C@]23c4c5ccc(O)c4O[C@H]2C(=O)CC[C@]3(O)[C@H]1C5` [(+)-Naloxone, (+)-naloxone], in assay [1], the “Protection from APAP-induced toxicity” value is listed as “essentially no protection”; the “Liver histology scores (necrosis and hemorrhage)” value is recorded as “did not improve the histology scores”; the “Serum alanine transaminase (ALT) levels” value is “reduced the ALT levels”. For the same compound, the “Protection from APAP-induced toxicity” value in assay [1] (listed as (+)-naloxone) is recorded as “did not affect acetaminophen-induced hepatotoxicity”. The “Average % Inhibition at TLR7” value at TLR7 was found to be 18%.
`COc1ccc2c(c1O)[C@@]13CCN(C)[C@@H](C2)[C@H]1CC(OC)C(=O)C3` (some centres unmarked) [Dihydrosinomenine, dihydrosinomenine]: the “Average % Inhibition at TLR7” value on TLR7 stood at 11%.
On to `CN[C@@H]1CC[C@]2(O)[C@@H]3Cc4ccc(O)c5c4[C@]2(CCN3CC2CC2)[C@@H]1O5` [II-78], for which, in assay [1], the “Protection from APAP-induced toxicity” value is recorded as “provided protection”; the “Liver histology scores (necrosis and hemorrhage)” value was “reduced to about half”; the “Serum alanine transaminase (ALT) levels” value is listed as “reduced significantly”. Further, the “IFN-β mRNA up-regulation (IRF pathway)” value in the assay with TLR9 is “this activation was inhibited; also recorded: reduced both NFκB- and IRF-dependent pathways downstream of TLR9”.
Take `COC1=C[C@@H]2[C@@H]3Cc4ccc(OC)c(O)c4[C@]2(CCN3C)CC1=O` [Sinomenine, sinomenine]: the inhibition (as a rule, the drop in the measured response relative to a control, in per cent) at 10 µM at TLR7 (HEK293, stimulated with CL097 at 1 μg/ml) turned out to be 20%.
